Results reported in patent publication US20050049278A1, “Benzo[1,3]dioxole compounds, pharmaceutical compositions thereof, and processes of making and using the same” (priority 2003, published 2005).
Read-outs that look alike come from different tables or passages of the source. Each block holds one molecule with its values, some of them ahead of it.

Experiments:
HEK293 cells [1] = assay: Cell cycle analysis by FACS of HEK293 cells; assay type: cell-based; settings: for Percent of Cells in G1 / Percent of Cells in G2/M / Percent of Cells in S: treated 16 to 24 hrs; for accumulation of cells in G2/M: HEK293, concentrations as in Table 1; for FACS profile / cell cycle effect: HEK293, FACS
Protocol: Fluorescence-activated cell sorting (FACS) analysis was used to examine the cell cycle state when the cells were incubated with compounds of formula (I) as well as several control compounds, including DMSO, noscapine (a known G2/M inhibitor), and colchicine (a known G2/M inhibitor).
(§1) In particular, HEK293 cells were cultured in DMEM media (Celigro) supplemented with 10% Fetal Bovine Serum (Tissue Culture Biologicals) and 1× Penicillin/Streptomycin/Glutamine (Gibco). The cells were grown at 37° C. with 5% CO2, plated in six-well plates at 2.5×10^6 cells/well, and treated for 16 to 24 hrs with the compounds at the concentrations shown in Table 1, below. The cells were then triturated off the bottom of the wells, washed 1× with PBS, then fixed with 70% ethanol, and stored at 4° C. before staining and FACS analysis.
The DNA content of cells was determined using a FacsVantage SE flow cytometry system (Becton Dickinson, San Jose, Calif.) and a Cellular DNA Flow Cytometric Analysis Kit (Roche Applied Science, Indianapolis, Ind.). Cell cycle analysis was performed using Cylchred 1.0.2 software.

topoisomerase I = target: T1, topoisomerase I (Homo sapiens, UniProt P11387); assay: Topoisomerase I assay (supercoiled pBluescript DNA, agarose gel); assay type: biochemical; settings: in vitro, FIG. 2
T1 construct: purchased Sigma-Aldrich
T1 sequence (P11387 1-765): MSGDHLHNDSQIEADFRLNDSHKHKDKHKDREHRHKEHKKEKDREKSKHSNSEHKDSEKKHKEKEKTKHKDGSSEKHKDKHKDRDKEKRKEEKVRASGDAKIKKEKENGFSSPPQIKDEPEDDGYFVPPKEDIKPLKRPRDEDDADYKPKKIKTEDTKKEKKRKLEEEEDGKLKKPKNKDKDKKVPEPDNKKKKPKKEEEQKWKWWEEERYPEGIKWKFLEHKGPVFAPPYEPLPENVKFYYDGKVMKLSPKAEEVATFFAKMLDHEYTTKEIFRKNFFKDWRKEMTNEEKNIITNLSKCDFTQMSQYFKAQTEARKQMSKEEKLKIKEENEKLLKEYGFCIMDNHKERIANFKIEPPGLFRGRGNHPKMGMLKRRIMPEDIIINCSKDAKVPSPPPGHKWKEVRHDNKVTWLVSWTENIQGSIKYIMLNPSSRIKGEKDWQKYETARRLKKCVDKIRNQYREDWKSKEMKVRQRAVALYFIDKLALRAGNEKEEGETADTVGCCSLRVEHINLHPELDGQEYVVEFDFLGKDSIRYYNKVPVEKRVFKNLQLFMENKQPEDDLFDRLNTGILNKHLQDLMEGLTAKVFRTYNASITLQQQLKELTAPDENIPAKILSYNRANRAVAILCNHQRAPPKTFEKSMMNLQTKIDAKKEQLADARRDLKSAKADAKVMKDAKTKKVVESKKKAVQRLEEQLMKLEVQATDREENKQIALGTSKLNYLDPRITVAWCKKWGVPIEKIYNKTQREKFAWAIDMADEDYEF
Protocol: (§2) The ability of compounds that cause S-phase cell cycle arrest to inhibit topoisomerase I and topoisomerase II was examined. Analysis of topoisomerase activity was performed in 20 μl reactions with either topoisomerase I reaction buffer (10 mM TRIS-HCl, pH 7.5; 100 mM NaCl; 1 mM 2-mercaptoethanol) or topoisomerase II reaction buffer (50 mM Tris-HCl, pH 8; 120 mM KCl; 10 mM MgCl2; 0.5 mM dithiothreitol; 0.5 mM ATP; 30 μg BSA/ml) containing 125 ng supercoiled pBluescript DNA and either 2 U topoisomerase I (Sigma-Aldrich) or topoisomerase II (Topogen Inc.). After reaction at 37° C. for 20 minutes, the reactions were terminated through the addition of sodium dodecyl sulfate to 1% w/v and heating to 65° C. for 10 minutes. Proteinase K was then added to 10 μg/ml and digestion was allowed to proceed at 37° C. for 20 minutes before electrophoresis of the DNA in 0.8% agarose gels containing 0.5 μg/ml ethidium bromide for 18 hours at 75V in 0.5×TBE buffer. DNA was then visualized using a UV-transilluminator and the image was captured using a BioRad CCD camera and gel documentation system.

topoisomerase II = target: T2, topoisomerase II (Homo sapiens, UniProt P11388); assay: Topoisomerase II assay (supercoiled pBluescript DNA, agarose gel); assay type: biochemical; settings: in vitro, FIG. 2
T2 construct: purchased Topogen Inc
Protocol: as §2, with “Analysis” for “The ability of compounds that cause S-phase cell cycle arrest to inhibit topoisomerase I and topoisomerase II was examined. Analysis”

HEK293 cells [2] = assay: HEK293 cell viability, CellTiter 96 Aqueous One Solution Cell Proliferation assay; assay type: cell-based; settings: Homo sapiens, HEK293, 48 h
Protocol: The effect of various doses of compounds 5a, 5a,b, and 9a on the viability of HEK293 cells was examined using the CellTiter 96 Aqueous One Solution Cell Proliferation assay (Promega). The HEK293 cells were cultured in DMEM media (Cellgro) or phenol red-free DMEM (Gibco) supplemented with 10% Fetal Bovine Serum (Tissue Culture Biologicals) and 1× Penicillin/Streptomycin/Glutamine (Gibco). The cells were grown at 37° C. with 5% CO2. HEK293 cells were seeded into each well of a 96-well plate (5000 cells/well) and incubated overnight to allow the cells to attach. The culture media was removed and replaced with 100 μl of phenol red-free media containing the compounds 5a, 5a,b, and 9a at various concentrations. The cells were allowed to grow in the presence of the compounds for 48 hrs. At the end of the treatment, 20 μl of CellTiter 96 Aqueous One Solution reagent was added directly into each well, and the cells were incubated at 37° C. for 2 hrs. This reagent converts to a form that absorbs light at 490 nm by living cells. Thus, absorbance at 490 nm is proportional to the number of viable cells. The 490 nm absorbance was measured on a BioRad plate reader. Control wells containing no cells were included in this assay to correct for background absorbance.

[3] = test system: HTS-tubulin (90% tubulin plus 10% microtubule associated proteins); assay: Microtubule polymerization assay (turbidity at 340 nm); assay type: biochemical; settings: absorbance at 340 nm, 30 minutes, 37° C., FIG. 3
Protocol: Microtubule polymerization assays were performed to determine if compounds, such as compound 9a, cause G2/M cell cycle arrest by affecting microtubule dynamics. A microtubule polymerization assay was performed that takes advantage of the observation that there is an increase in turbidity that can be measured at 340 nm as tubulin heterodimers polymerize to form microtubules. In brief, HTS-tubulin (90% tubulin plus 10% microtubule associated proteins; Cytoskeleton Inc., Denver, Colo.) was resuspended in G-PEM buffer (80 mM Pipes, pH 6.9; 2 mM MgCl2; 0.5 mM EDTA; 1 mM GTP) to 10 mg/ml. This suspension was clarified by centrifugation for 10 min. at 225,000×g. The supernatant was then diluted with G-PEM buffer to 2 mg/ml and 100 μl of this solution was added to the appropriate number of ½-area wells in a 96-well format (Corning). Each compound (10 μl of a 10× final concentration in 10% DMSO) was added to the wells in duplicate and immediately put into a pre-warmed (37° C.) Spectromax 190 plate reader. The absorbance was read at 340 nm immediately (time=0) and every minute thereafter for 30 minutes.
The tubulin mix was incubated in the presence of paclitaxel (a microtubule stabilizing agent), nocodazole (a microtubule destabilizing agent), vehicle control (DMSO), or varying concentrations of compound 9a (FIG. 3).

[4] = test system: non-stimulated peripheral blood lymphocytes (PBLs); assay: Cell cycle analysis on non-stimulated peripheral blood lymphocytes; assay type: cell-based; settings: PBL (non-stimulated), 25 μM, 16 to 24 hrs
Protocol: (§3) The effects of compounds 5a,b on the cell cycle were further examined on phytohemagglutinin (PHA)-stimulated and non-stimulated peripheral blood lymphocytes (PBLs).
as §1, with “PBLs” for “In particular, HEK293 cells”, “2.5-5×10^6” for “2.5×10^6”, “2, below, with or without 1 μg/ml PHA (Sigma).” for “1, below.”

[5] = test system: phytohemagglutinin (PHA)-stimulated peripheral blood lymphocytes (PBLs); assay: Cell cycle analysis on phytohemagglutinin-stimulated peripheral blood lymphocytes; assay type: cell-based; settings: PHA-stim. PBL (1 μg/ml PHA), 25 μM, 16 to 24 hrs
Protocol: as §3
as §1, with “PBLs” for “In particular, HEK293 cells”, “2.5-5×10^6” for “2.5×10^6”, “2, below, with or without 1 μg/ml PHA (Sigma).” for “1, below.”

T2 sequence (P11388 whole entry): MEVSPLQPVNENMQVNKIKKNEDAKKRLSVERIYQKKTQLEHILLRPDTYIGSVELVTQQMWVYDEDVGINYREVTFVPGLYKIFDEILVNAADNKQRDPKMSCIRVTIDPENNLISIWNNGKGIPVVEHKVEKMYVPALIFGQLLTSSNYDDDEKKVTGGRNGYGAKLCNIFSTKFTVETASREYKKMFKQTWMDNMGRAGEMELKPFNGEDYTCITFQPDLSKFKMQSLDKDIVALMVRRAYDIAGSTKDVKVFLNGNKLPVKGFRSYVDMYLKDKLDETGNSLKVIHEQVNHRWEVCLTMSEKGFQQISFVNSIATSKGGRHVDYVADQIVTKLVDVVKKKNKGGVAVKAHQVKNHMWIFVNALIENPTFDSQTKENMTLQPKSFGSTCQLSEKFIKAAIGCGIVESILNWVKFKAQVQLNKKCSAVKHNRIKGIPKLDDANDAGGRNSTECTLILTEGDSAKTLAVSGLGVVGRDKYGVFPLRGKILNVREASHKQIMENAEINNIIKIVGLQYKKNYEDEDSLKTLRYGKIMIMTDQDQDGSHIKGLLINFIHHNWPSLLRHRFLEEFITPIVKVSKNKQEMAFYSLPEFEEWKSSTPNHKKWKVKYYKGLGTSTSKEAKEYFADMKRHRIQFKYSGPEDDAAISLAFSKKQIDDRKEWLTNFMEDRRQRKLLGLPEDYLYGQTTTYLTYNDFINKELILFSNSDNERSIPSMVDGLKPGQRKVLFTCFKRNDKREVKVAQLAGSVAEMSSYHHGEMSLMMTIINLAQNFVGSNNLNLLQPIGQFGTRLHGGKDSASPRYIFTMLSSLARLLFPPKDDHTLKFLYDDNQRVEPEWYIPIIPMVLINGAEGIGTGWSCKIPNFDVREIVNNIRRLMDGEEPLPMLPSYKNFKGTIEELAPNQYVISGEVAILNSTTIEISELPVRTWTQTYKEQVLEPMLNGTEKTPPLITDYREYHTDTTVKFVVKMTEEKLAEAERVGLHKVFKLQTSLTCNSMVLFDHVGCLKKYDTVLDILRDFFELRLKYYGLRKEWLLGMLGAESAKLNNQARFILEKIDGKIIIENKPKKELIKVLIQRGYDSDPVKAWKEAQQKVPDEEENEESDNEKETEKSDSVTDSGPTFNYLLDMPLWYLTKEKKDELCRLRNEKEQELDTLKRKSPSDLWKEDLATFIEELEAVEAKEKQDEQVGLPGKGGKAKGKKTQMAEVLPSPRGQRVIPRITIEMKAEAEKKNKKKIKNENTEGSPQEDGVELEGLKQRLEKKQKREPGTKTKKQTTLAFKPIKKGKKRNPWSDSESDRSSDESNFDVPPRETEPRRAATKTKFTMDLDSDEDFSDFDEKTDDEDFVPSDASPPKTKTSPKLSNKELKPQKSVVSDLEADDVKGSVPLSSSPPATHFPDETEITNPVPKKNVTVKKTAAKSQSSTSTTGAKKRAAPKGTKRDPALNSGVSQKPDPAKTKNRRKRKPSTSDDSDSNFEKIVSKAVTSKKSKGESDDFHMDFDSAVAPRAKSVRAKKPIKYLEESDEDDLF

Compound: COc1ccc2c(c1)C(=O)O[C@@H]2[C@H]1c2c(cc3c(c2OC)OCO3)CCN1C [Compound 12]
Percent of Cells in G1 (HEK293 cells [1]; HEK293, 1 μM): 3.8%
Percent of Cells in G2/M (HEK293 cells [1]; HEK293, 1 μM): 89.8%
Percent of Cells in S (HEK293 cells [1]; HEK293, 1 μM): 6.4%
accumulation of cells in G2/M (HEK293 cells [1]): ~90%

Compound: COc1ccc2c(c1OCc1ccccc1)C(=O)OC2[C@H]1c2c(cc3c(c2OC)OCO3)CCN1C (stereo partly shown) [6a,b]
Percent of Cells in G1 (HEK293 cells [1]; HEK293, 50 μM): 12.1%
Percent of Cells in G2/M (HEK293 cells [1]; HEK293, 50 μM): 16.7%
Percent of Cells in S (HEK293 cells [1]; HEK293, 50 μM): 71.2%
FACS profile / cell cycle effect (HEK293 cells [1]): accumulating in S-phase

concentrations at which topoisomerase I activity was inhibited (topoisomerase I): below 3 μM
Compound: CC[C@@]1(O)C(=O)OCc2c1cc1n(c2=O)Cc2cc3c(CN(C)C)c(O)ccc3nc2-1 [topotecan]
inhibition of topoisomerase II activity (topoisomerase II): neither topotecan nor noscapine acts as inhibitors

Compound: CC(=O)O[C@H]1C(=O)[C@@]2(C)[C@H]([C@H](OC(=O)c3ccccc3)[C@]3(O)C[C@H](OC(=O)[C@H](O)[C@@H](NC(=O)c4ccccc4)c4ccccc4)C(C)=C1C3(C)C)[C@]1(OC(C)=O)CO[C@@H]1C[C@@H]2O [Paclitaxel, reference compound]
EC50 (HEK293 cells [2]; read-out: EC50): < 100 nM
effect on microtubule polymerization [3]: increased microtubule polymerization

Compound: COc1cc(COc2c(OC)ccc3c2C(=O)O[C@@H]3[C@H]2c3c(cc4c(c3OC)OCO4)CCN2C)cc(OC)c1OC [Compound 5a]
EC50 (HEK293 cells [2]; read-out: EC50): 300 nM
EC50 (HEK293 cells [2]; text summary, read-out: EC50): < 1000 nM

Compound: COc1cc([C@@H]2c3cc4c(cc3[C@@H](O[C@@H]3O[C@@H]5CO[C@@H](C)O[C@H]5[C@H](O)[C@H]3O)[C@H]3COC(=O)[C@H]23)OCO4)cc(OC)c1O [etoposide]
inhibition of topoisomerase I activity (topoisomerase I): neither etoposide nor noscapine inhibited

Compound: COc1ccc2c(c1C#N)C(=O)O[C@@H]2[C@H]1c2c(cc3c(c2OC)OCO3)CCN1C [Compound 10, 5-methoxy-1-(4-methoxy-6-methyl-5,6,7,8-tetrahydro-[1,3]dioxolo-[4,5-g]isoguinolin-5-yl)-3-oxo-1,3-dihydro-isobenzofuran-4-carbonitrile]
Percent of Cells in G1 (HEK293 cells [1]; HEK293, 50 μM): 2%
Percent of Cells in G2/M (HEK293 cells [1]; HEK293, 50 μM): 89.2%
Percent of Cells in S (HEK293 cells [1]; HEK293, 50 μM): 8.8%
accumulation of cells in G2/M (HEK293 cells [1]): ~90%

Compound: COc1cc2c(c(OC)c1OC)-c1ccc(OC)c(=O)cc1[C@@H](NC(C)=O)CC2 [colchicine, reference compound]
Percent of Cells in G1 (HEK293 cells [1]; HEK293, 10 μM): 2.7%
Percent of Cells in G2/M (HEK293 cells [1]; HEK293, 10 μM): 83.4%
Percent of Cells in S (HEK293 cells [1]; HEK293, 10 μM): 13.9%

Compound: COc1ccc2c(c1S)C(=O)O[C@@H]2[C@H]1c2c(cc3c(c2OC)OCO3)CCN1C [Compound 13]
Percent of Cells in G1 (HEK293 cells [1]; HEK293, 5 μM): 3.2%
Percent of Cells in G2/M (HEK293 cells [1]; HEK293, 5 μM): 89.6%
Percent of Cells in S (HEK293 cells [1]; HEK293, 5 μM): 7.2%
accumulation of cells in G2/M (HEK293 cells [1]): ~90%

Compound: COC(=O)Nc1nc2ccc(C(=O)c3cccs3)cc2[nH]1 [Nocodazole, reference compound]
EC50 (HEK293 cells [2]; read-out: EC50): < 20 nM
effect on microtubule polymerization [3]: decreased microtubule polymerization

Compound: COc1cc(COc2c(OC)ccc3c2C(=O)OC3[C@H]2c3c(cc4c(c3OC)OCO4)CCN2C)cc(OC)c1OC (stereo partly shown) [Compound 5a,b]
Percent of Cells in G1 (HEK293 cells [1]; HEK293, 50 μM): 13.1%
Percent of Cells in G2/M (HEK293 cells [1]; HEK293, 50 μM): 6.3%
Percent of Cells in S (HEK293 cells [1]; HEK293, 50 μM): 80.7%
FACS profile / cell cycle effect (HEK293 cells [1]): accumulate more cells in S-phase than 6a,b
Percent of Cells in G1 [4]: 91.6%
Percent of Cells in G2/M [4]: 1.5%
Percent of Cells in S [4]: 6.8%
Percent of Cells in G1 [5]: 69.3%
Percent of Cells in G2/M [5]: 5.4%
Percent of Cells in S [5]: 25.3%
EC50 (HEK293 cells [2]): 400 nM
EC50 (HEK293 cells [2]; text summary): < 1000 nM
